Where two headings read alike, the source gives them in different places.
What was measured:
Assay in all cases: Kinase profile (33P ATP filter binding)
Assay type in all cases: biochemical
[1] = molecular target: AMPK (hum) (Homo sapiens, UniProt Q13131); conditions: read-out: Remaining protein kinase activity
[2] = molecular target: CDK9-Cyclin T1 (Homo sapiens, UniProt P50750); conditions: read-out: Remaining protein kinase activity
[3] = molecular target: CHK2 (Homo sapiens, UniProt O96017); conditions: read-out: Remaining protein kinase activity
[4] = molecular target: ERK2 (Homo sapiens, UniProt P28482); conditions: read-out: Remaining protein kinase activity
[5] = molecular target: MAPKAP-K2 (Homo sapiens, UniProt P49137); conditions: read-out: Remaining protein kinase activity
[6] = molecular target: MARK2 (Homo sapiens, UniProt Q7KZI7); conditions: read-out: Remaining protein kinase activity
[7] = molecular target: T1, MARK4 (Homo sapiens, UniProt Q96L34)
T1 sequence (Q96L34 1-752): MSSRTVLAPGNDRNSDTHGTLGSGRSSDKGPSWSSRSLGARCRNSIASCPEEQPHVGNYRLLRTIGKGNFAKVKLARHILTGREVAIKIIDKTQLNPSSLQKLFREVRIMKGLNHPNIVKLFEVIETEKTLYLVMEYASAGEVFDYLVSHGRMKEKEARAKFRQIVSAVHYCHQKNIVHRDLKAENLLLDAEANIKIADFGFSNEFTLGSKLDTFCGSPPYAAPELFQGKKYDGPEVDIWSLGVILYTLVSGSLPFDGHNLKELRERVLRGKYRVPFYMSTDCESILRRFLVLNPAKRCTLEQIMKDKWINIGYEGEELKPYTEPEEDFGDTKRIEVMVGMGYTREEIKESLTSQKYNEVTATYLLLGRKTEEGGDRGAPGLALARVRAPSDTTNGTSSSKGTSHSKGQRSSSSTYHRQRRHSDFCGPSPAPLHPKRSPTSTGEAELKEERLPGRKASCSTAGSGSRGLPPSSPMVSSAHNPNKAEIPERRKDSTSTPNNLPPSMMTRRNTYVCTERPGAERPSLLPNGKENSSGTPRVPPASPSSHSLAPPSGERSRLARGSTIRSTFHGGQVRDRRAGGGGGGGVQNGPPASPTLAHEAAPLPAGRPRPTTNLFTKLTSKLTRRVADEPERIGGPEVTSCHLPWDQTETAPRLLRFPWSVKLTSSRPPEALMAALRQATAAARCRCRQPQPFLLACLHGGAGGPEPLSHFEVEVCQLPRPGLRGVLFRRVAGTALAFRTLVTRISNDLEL

[8] = molecular target: MEKK1 (Homo sapiens, UniProt Q13233); conditions: read-out: Remaining protein kinase activity
[9] = molecular target: PIM3 (Homo sapiens, UniProt Q86V86); conditions: read-out: Remaining protein kinase activity
[10] = molecular target: RSK2 (Homo sapiens, UniProt P51812); conditions: read-out: Remaining protein kinase activity
[11] = molecular target: SRPK1 (Homo sapiens, UniProt Q96SB4); conditions: read-out: Remaining protein kinase activity
[12] = molecular target: T2, TTK (Homo sapiens, UniProt P33981); conditions: read-out: Remaining protein kinase activity
T2 sequence (P33981 1-857): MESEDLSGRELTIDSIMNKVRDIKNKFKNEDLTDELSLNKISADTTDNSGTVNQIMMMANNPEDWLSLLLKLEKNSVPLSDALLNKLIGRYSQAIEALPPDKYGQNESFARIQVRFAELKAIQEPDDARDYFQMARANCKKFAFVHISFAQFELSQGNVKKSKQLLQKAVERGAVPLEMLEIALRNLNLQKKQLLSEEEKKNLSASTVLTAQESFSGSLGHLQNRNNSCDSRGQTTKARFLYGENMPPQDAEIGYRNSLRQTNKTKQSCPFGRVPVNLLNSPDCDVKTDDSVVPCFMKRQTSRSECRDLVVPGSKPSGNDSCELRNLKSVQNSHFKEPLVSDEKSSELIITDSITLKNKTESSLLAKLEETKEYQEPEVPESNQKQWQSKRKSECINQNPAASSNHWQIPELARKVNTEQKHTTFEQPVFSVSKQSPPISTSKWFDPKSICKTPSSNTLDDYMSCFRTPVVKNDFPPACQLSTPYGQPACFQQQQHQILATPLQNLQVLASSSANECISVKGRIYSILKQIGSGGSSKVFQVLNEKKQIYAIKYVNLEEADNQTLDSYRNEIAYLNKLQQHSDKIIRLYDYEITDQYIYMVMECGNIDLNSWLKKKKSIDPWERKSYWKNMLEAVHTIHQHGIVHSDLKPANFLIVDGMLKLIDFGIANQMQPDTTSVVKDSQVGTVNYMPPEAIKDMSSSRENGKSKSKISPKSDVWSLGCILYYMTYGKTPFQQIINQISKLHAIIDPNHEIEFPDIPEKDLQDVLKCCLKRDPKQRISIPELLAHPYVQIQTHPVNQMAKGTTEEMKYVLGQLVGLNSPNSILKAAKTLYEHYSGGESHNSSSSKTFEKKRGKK

SRPK1, sequence (Q96SB4 whole entry): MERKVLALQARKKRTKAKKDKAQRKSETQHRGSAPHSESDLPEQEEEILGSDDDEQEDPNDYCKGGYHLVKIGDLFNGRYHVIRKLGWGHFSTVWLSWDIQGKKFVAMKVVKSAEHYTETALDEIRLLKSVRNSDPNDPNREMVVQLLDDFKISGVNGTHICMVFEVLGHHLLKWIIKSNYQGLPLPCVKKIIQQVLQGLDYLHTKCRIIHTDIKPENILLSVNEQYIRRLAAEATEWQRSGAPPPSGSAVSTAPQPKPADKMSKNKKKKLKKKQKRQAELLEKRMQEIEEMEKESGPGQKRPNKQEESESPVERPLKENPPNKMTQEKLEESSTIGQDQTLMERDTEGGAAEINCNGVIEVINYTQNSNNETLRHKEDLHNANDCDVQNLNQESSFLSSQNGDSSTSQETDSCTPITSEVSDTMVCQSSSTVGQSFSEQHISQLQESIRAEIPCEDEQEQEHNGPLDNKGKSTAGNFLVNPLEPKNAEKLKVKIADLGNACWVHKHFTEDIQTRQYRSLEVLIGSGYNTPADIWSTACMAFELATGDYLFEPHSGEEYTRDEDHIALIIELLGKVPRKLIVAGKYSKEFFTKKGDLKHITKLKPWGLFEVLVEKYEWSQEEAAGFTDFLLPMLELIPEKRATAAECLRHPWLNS
AMPK (hum), sequence (Q13131 whole entry): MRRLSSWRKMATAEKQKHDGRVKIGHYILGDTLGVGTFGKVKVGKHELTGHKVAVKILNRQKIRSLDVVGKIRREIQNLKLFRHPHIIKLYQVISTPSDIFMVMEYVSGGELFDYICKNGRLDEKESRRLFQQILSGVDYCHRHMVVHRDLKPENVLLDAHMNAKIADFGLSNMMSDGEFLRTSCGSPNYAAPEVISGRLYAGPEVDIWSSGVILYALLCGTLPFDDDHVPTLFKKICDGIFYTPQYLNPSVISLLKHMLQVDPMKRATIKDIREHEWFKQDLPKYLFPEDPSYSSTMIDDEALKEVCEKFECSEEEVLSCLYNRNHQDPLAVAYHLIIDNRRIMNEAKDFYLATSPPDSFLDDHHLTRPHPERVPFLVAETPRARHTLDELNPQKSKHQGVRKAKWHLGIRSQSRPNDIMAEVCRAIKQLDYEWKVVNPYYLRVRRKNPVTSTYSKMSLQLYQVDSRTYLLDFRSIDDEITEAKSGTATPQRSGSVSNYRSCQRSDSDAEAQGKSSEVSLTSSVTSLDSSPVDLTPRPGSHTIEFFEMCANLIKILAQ
AMPK (hum), sequence (O43741 whole entry partner): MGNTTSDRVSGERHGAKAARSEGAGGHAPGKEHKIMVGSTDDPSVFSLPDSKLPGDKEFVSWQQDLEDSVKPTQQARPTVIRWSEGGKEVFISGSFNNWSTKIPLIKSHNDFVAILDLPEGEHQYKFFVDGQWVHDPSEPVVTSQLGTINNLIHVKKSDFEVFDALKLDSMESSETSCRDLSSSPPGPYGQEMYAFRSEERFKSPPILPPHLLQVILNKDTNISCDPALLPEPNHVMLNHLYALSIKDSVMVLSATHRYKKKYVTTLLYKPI
AMPK (hum), sequence (P54619 whole entry partner): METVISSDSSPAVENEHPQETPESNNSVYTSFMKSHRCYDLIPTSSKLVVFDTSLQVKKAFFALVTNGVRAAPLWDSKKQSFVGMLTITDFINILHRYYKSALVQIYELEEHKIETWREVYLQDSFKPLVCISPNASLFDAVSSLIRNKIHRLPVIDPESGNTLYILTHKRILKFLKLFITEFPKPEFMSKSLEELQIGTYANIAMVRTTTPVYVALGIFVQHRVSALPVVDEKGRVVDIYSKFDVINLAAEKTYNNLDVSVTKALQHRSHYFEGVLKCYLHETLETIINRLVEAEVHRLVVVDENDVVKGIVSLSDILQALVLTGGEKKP
CDK9-Cyclin T1, sequence (P50750 whole entry): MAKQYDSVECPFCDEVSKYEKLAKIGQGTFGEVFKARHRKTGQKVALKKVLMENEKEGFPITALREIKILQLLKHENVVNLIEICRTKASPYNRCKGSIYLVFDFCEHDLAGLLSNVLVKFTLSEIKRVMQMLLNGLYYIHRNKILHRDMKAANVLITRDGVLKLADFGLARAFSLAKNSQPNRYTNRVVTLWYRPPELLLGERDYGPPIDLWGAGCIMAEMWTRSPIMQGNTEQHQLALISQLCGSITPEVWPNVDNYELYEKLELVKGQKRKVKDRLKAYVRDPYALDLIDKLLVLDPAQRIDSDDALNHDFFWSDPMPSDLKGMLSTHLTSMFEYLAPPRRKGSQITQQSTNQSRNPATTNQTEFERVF
CDK9-Cyclin T1, sequence (O60563 whole entry partner): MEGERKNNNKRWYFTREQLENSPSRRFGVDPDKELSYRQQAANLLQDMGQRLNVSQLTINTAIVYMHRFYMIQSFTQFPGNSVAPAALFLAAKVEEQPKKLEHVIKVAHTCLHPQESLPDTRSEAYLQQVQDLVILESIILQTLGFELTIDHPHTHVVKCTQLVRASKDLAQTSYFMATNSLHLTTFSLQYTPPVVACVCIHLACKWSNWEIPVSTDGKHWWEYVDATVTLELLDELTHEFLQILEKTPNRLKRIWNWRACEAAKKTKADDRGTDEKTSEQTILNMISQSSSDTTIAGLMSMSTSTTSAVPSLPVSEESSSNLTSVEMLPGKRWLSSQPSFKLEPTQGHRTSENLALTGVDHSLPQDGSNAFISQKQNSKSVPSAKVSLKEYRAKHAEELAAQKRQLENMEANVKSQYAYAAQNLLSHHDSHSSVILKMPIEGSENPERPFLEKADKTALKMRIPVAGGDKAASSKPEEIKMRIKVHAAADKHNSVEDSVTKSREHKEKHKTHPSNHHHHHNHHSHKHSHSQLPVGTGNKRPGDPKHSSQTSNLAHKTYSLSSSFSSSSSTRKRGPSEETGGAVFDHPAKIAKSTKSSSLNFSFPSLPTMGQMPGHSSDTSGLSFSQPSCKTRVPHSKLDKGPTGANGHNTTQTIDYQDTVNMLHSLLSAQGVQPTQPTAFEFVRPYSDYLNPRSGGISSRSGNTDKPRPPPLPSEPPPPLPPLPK
ERK2, sequence (P28482 whole entry, species assumed): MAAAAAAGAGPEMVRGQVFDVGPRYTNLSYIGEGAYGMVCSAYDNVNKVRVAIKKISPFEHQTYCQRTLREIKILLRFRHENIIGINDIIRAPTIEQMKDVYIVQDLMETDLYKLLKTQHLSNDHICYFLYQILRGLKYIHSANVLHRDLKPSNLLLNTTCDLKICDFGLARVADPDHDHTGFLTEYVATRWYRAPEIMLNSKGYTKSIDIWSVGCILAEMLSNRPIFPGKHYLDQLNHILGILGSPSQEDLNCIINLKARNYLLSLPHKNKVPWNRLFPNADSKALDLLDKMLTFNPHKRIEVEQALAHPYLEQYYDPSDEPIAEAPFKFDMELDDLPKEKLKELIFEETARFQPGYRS
CHK2, sequence (O96017 whole entry): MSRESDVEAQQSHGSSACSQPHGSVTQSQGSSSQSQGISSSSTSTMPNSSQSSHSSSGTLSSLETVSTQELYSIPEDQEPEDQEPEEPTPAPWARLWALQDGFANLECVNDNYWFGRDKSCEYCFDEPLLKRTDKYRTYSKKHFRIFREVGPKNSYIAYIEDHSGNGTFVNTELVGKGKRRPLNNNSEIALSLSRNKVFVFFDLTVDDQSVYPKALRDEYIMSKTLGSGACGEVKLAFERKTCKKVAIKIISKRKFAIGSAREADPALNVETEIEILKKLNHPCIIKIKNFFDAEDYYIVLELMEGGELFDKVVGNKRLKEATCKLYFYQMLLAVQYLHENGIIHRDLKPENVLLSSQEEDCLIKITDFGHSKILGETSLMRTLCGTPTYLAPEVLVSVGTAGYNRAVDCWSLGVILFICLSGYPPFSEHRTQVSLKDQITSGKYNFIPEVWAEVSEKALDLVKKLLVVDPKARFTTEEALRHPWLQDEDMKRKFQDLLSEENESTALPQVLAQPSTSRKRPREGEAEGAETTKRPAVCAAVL
MAPKAP-K2, sequence (P49137 whole entry): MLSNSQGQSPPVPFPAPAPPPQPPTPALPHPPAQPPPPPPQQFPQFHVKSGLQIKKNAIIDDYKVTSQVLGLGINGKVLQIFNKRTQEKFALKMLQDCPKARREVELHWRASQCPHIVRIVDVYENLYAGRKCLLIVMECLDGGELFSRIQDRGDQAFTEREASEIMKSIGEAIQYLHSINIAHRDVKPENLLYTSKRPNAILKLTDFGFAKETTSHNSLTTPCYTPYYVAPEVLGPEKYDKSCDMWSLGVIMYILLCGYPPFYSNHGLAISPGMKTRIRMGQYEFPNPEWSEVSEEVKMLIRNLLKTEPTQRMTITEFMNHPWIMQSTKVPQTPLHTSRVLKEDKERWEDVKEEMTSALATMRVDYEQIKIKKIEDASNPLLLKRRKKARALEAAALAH
RSK2, sequence (P51812 whole entry, species assumed): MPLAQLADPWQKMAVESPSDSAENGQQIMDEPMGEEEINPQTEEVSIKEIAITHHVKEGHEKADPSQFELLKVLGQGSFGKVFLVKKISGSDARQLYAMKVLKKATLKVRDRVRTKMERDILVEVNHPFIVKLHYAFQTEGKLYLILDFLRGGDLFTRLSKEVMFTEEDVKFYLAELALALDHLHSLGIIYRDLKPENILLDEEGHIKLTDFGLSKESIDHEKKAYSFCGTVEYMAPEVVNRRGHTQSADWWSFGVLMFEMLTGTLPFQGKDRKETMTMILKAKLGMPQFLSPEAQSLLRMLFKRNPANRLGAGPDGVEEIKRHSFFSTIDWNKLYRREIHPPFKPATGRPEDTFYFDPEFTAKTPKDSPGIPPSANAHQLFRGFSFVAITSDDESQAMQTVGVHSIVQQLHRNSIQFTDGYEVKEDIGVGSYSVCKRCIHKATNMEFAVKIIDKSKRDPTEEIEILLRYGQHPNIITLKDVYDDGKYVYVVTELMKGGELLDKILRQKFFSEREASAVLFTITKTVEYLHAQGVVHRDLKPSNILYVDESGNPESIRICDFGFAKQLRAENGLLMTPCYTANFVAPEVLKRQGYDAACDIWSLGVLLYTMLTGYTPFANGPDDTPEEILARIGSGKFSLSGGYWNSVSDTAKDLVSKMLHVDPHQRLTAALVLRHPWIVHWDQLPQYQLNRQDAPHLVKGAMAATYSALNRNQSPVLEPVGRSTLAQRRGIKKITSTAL

With `COc1ccc2sc(-c3cncc(NC(C)=O)c3)nc2c1` [PST-001, N-(5-(5-Methoxybenzo[d]thiazol-2-yl)pyridin-3-yl)acetamide] the remaining activity at 1 µM [1] was 99%, the remaining activity at 100 µM [1] was 69% and the remaining activity at 1 µM [2] was 122%. The remaining activity at 100 µM [2] was 120%, the remaining activity at 1 µM [3] was 105% and the remaining activity at 100 µM [3] was 85%. It also gave a remaining activity at 1 µM [4] of 115%, a remaining activity at 100 µM [4] of 112% and a remaining activity at 1 µM [5] of 109%. The remaining activity at 100 µM [5] was 111%, the remaining activity at 1 µM [6] was 116% and the remaining activity at 100 µM [6] was 106%. For the same compound, the “Remaining protein kinase activity” value ([7]; 1 μM) was 121%, the “Remaining protein kinase activity” value ([7]; 100 μM) was 103% and the remaining activity at 1 µM [8] was 126%. The remaining activity at 100 µM [8] was 109%, the remaining activity at 1 µM [9] was 93% and the remaining activity at 100 µM [9] was 76%. It also gave a remaining activity at 1 µM [10] of 113%, a remaining activity at 100 µM [10] of 100% and a remaining activity at 1 µM [11] of 115%. The remaining activity at 100 µM [11] was 108%, the remaining activity at 1 µM [12] was 88% and the remaining activity at 100 µM [12] was 69%.
`COc1ccc2sc(-c3cncc(N)c3)nc2c1` [compound 1, 5-(5-Methoxybenzo[d]thiazol-2-yl)pyridin-3-amine] was tested, and the remaining activity at 1 µM ([1]; AMPK (hum), 1 μM) was 107%, the remaining activity at 100 µM ([1]; AMPK (hum), 100 μM) was 46% and the remaining activity at 1 µM ([2]; CDK9-Cyclin T1, 1 μM) was 113%. For the same compound, the remaining activity at 100 µM ([2]; CDK9-Cyclin T1, 100 μM) was 83%, the remaining activity at 1 µM ([3]; CHK2, 1 μM) was 114% and the remaining activity at 100 µM ([3]; CHK2, 100 μM) was 52%. The remaining activity at 1 µM ([4]; ERK2, 1 μM) was 102%, the remaining activity at 100 µM ([4]; ERK2, 100 μM) was 96% and the remaining activity at 1 µM ([5]; MAPKAP-K2, 1 μM) was 122%. The remaining activity at 100 µM ([5]; MAPKAP-K2, 100 μM) was 66%, the remaining activity at 1 µM ([6]; MARK2, 1 μM) was 112% and the remaining activity at 100 µM ([6]; MARK2, 100 μM) was 62%. The “Remaining protein kinase activity” value ([7]; 1 μM) was 131%, the “Remaining protein kinase activity” value ([7]; 100 μM) was 58% and the remaining activity at 1 µM ([8]; MEKK1, 1 μM) was 132%. For the same compound, the remaining activity at 100 µM ([8]; MEKK1, 100 μM) was 107%, the remaining activity at 1 µM ([9]; PIM3, 1 μM) was 90% and the remaining activity at 100 µM ([9]; PIM3, 100 μM) was 24%. For the same compound, the remaining activity at 1 µM ([10]; RSK2, 1 μM) was 115%, the remaining activity at 100 µM ([10]; RSK2, 100 μM) was 56% and the remaining activity at 1 µM ([11]; SRPK1, 1 μM) was 108%. The remaining activity at 100 µM ([11]; SRPK1, 100 μM) was 55%, the remaining activity at 1 µM ([12]; TTK, 1 μM) was 86% and the remaining activity at 100 µM ([12]; TTK, 100 μM) was 47%.

Source: PMC8617627, “Novel DYRK1A Inhibitor Rescues Learning and Memory Deficits in a Mouse Model of Down Syndrome” (Pharmaceuticals, 2021)
